The test system of test [1] is human lung cancer cell line NCI-H460. The test is described as follows: Cell growth inhibition assay (MTT), NCI-H460. The test is classed as cell-based. The conditions noted are these: Homo sapiens, read-out: GI50 value (50% growth inhibitory concentration). Here is the method:
(§1) A cell growth inhibition assay was performed using two types of cells (human breast cancer cell line SK-BR-3 and human lung cancer cell line NCI-H460).
(§2) Cells of each type were suspended in a medium and seeded into a 96-well multi-well plate at 500 cells/150 μl/well. The test compound was dissolved in DMSO, and this was diluted with medium to prepare a sample solution (DMSO concentration: 0.5% or less). On the day following the seeding, 50 μL of DMSO-containing medium to which the test compound was not added (hereinafter called DMSO diluted solution; DMSO concentration: 0.5% or less) or the sample solution was added to the cells. An MTT assay was performed immediately after and 72 hours after adding the sample solution or the DMSO diluted solution to the cells. The MTT assay was performed as follows.
(§3) 5 mg/mL of an MTT (3-(4,5-dimethylthiazol-2-yl)-2,5-diphenyltetrazolium bromide) solution was added at 20 μL per well. Thereafter, the plate was incubated at 37° C. in 5% CO2 for four hours. The plate was centrifuged at 1200 rpm for five minutes, and then the culture supernatant was removed by suction using a dispenser. DMSO was added at 150 μL per well, and the generated formazan was dissolved. The plate was stirred using a plate mixer to uniformly color the respective wells. The absorbance of each well was measured using a plate reader at an OD of 540 nm with a reference of 660 nm.
(§4) T/C (%) for each concentration was determined by the following calculation formula and a dose-response curve was drawn to calculate the 50% growth inhibitory concentration (GI50 value), based on the assumption that the OD value measured immediately after adding the sample solution was S, the OD value measured 72 hours after adding the sample solution was T, and the OD value measured 72 hours after adding the DMSO diluted solution was C. T/C(%)=(T−S)/(C−S)×100

Test [2] deals with T1, recombinant yeast Hsp90 protein (rHsp90) (Saccharomyces cerevisiae, UniProt P02829).
T1 construct: made in house; host or cells: Escherichia coli
Briefly: Hsp90 ATPase assay. The test is classed as biochemical. The conditions noted are these: rHsp90 100 μg/mL, ATP 100 μM, 37° C., two hours, BIOMOL GREEN; read-out: IC50 value (concentration for 50% inhibition of ATP activity). As for the experimental part: An Hsp90 ATPase assay was performed using a recombinant yeast Hsp90 protein (hereinafter called rHsp90). Yeast Hsp90 DNA was cloned from a yeast genomic DNA library according to a conventional method. The cloned yeast Hsp90 DNA was incorporated into a plasmid for expression in Escherichia coli, and the plasmid was expressed in Escherichia coli to obtain rHsp90.
The test compound was dissolved in DMSO to 10 mM. The dissolved solution was diluted with DMSO to eight concentrations ranging in three-fold dilutions from 4 mM. Each diluted solution was further 10-fold diluted with an assay buffer (100 mM Tris, pH 7.4, 20 mM KCl, 6 mM MgCl2) (concentration of each test compound solution: 400 μM, 133 μM, 44.4 μM, 14.8 μM, 4.94 μM, 1.65 μM, 0.549 μM, 0.183 μM; DMSO concentration: 10%).
rHsp90 was dissolved in a TE buffer (20 mM Tris, pH 7.4, 1 mM EDTA) to a concentration of 2.531 mg/mL. The dissolved solution was diluted with assay buffer to 125 μg/mL and dispensed to a 96-well assay plate at 40 μL per well (final concentration: 100 μg/mL).
The test compound solution was dispensed at 5 μL per well, and then the solutions in the respective wells were mixed using a plate mixer. 100 mM ATP (Sigma, Catalog No. A-7699) was diluted with assay buffer to 1 mM and dispensed at 5 μL per well (final concentration: 100 μM). The solutions in the respective wells were mixed using a plate mixer, and then the assay plate was allowed to stand in an incubator set at 37° C. for two hours.
BIOMOL GREEN Reagent (BIOMOL, Catalog No. AK-111) was dispensed at 100 μL per well, and the reaction was terminated. The solutions in the respective wells were mixed by pipetting (three times), and then 34% sodium citrate was dispensed at 10 μL per well. The solutions in the respective wells were mixed by pipetting (three times), and then the assay plate was left to stand at room temperature for 10 minutes. The absorbance at 630 nm of each well was measured with a microplate reader.
The ratio of the absorbance of the test compound-added group to the absorbance of the test compound-free group (T/C value) was determined by the following calculation formula, based on the assumption that the absorbance of the well to which the test compound and rHsp90 were added was A, the absorbance of the well to which only rHsp90 was added was B, and the absorbance of the well to which neither the test compound nor rHsp90 was added was C. T/C=(A−C)/(B−C)
Further, the concentration for 50% inhibition of ATP activity (IC50 value) was calculated using GraphPad Prism 4 (GraphPad Software, Inc.).

Test [3] deals with human breast cancer cell line SK-BR-3. Briefly: Cell growth inhibition assay (MTT), SK-BR-3. The conditions noted are these: Homo sapiens, read-out: GI50 value (50% growth inhibitory concentration). The format is cell-based. Here is the method: as §1, §2, §3, §4

pIC50: −log10 of the molar value. Counter-ions that a name gives are not always drawn. Like-named read-outs stand apart in the source and are kept apart here.

T1 sequence (P02829 whole entry): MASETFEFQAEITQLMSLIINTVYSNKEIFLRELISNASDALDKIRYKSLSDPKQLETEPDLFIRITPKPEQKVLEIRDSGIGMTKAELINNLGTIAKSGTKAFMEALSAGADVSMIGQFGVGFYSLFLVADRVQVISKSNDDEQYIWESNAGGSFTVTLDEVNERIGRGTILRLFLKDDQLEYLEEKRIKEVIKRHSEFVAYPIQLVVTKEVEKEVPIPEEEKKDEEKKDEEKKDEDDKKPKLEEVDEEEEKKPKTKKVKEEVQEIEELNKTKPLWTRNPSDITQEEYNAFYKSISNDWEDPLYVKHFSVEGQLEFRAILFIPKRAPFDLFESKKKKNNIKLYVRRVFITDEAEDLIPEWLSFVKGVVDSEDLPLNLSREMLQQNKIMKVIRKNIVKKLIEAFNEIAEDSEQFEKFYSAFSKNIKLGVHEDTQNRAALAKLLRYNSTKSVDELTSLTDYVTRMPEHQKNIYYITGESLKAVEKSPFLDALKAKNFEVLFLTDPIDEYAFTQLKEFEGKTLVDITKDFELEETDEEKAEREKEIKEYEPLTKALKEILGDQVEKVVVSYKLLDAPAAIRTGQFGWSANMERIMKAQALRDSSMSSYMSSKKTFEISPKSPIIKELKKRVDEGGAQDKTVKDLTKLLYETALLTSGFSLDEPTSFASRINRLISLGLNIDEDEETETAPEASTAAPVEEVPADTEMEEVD

On to `COc1c(C)cnc(Cn2nc3c4c(nc(N)nc42)SCC3)c1C` [Example 2, 2-[(4-Methoxy-3,5-dimethylpyridin-2-yl)methyl]-7,8-dihydro-2H-6-thia-1,2,3,5-tetraazaacenaphthylen-4-amine], for which the GI50 in test [1] (NCI-H460, MTT assay, 72 hours) came to 224 nM; in test [3] (SK-BR-3, MTT assay, 72 hours) it was 148 nM. Moreover, the pIC50 in test [2] was 6.00.

As to `COc1c(C)cnc(Cn2nc3c4c(nc(N)nc42)SC(C#N)C3)c1C` (centres unmarked) [Example 4, 4-Amino-2-[(4-methoxy-3,5-dimethylpyridin-2-yl)methyl]-7,8-dihydro-2H-6-thia-1,2,3,5-tetraazaacenaphthylene-7-carbonitrile], the GI50 in test [1] (NCI-H460, MTT assay, 72 hours) amounted to 69 nM; in test [3] (SK-BR-3, MTT assay, 72 hours), 44 nM. In test [2], the pIC50 was 6.06.

`CNC(=O)C1Cc2nn(Cc3ncc(C)c(OC)c3C)c3nc(N)nc(c23)S1` (centres unmarked) [Example 9, 4-Amino-2-[(4-methoxy-3,5-dimethylpyridin-2-yl)methyl]-N-methyl-7,8-dihydro-2H-6-thia-1,2,3,5-tetraazaacenaphthylene-7-carboxamide]: the GI50 is 159 nM in test [1] (NCI-H460, MTT assay, 72 hours) and 137 nM in test [3] (SK-BR-3, MTT assay, 72 hours). Moreover, in test [2], the pIC50 is 5.92.

Consider `COc1c(C)cnc(Cn2nc3c4c(nc(N)nc42)SC(C(=O)NC2CC2)C3)c1C` (centres unmarked) [Example 12, 4-Amino-N-cyclopropyl-2-[(4-methoxy-3,5-dimethylpyridin-2-yl)methyl]-7,8-dihydro-2H-6-thia-1,2,3,5-tetraazaacenaphthylene-7-carboxamide], for which the GI50 in test [1] (NCI-H460, MTT assay, 72 hours) was found to be 460 nM; in test [3] (SK-BR-3, MTT assay, 72 hours), 150 nM. Also, the pIC50 in test [2] is 5.66.

In the case of `COc1c(C)cnc(Cn2nc3c4c(nc(N)nc42)SCC=C3)c1C` [Example 36, 2-[(4-Methoxy-3,5-dimethylpyridin-2-yl)methyl]-2,7-dihydro-6-thia-1,2,3,5-tetraazabenzo[cd]azulen-4-amine], the GI50 in test [1] (NCI-H460, MTT assay, 72 hours) is 86 nM; in test [3] (SK-BR-3, MTT assay, 72 hours), 52 nM. In addition, the pIC50 in test [2] is 6.01.

For `CNC(=O)OC1CSc2nc(N)nc3c2c(nn3Cc2ncc(C)c(OC)c2C)C1` (centres unmarked) [Example 37, 4-Amino-2-[(4-methoxy-3,5-dimethylpyridin-2-yl)methyl]-2,7,8,9-tetrahydro-6-thia-1,2,3,5-tetraazabenzo[cd]azulen-8-yl methylcarbamate], the GI50 in test [1] (NCI-H460, MTT assay, 72 hours) was 411 nM; in test [3] (SK-BR-3, MTT assay, 72 hours) it was 307 nM. For the same compound, the pIC50 in test [2] is 5.48.

Consider `COc1c(C)cnc(Cn2nc3c4c(nc(N)nc42)SCC(NC(C)=O)C3)c1C` (centres unmarked) [Example 43, N-{4-Amino-2-[(4-methoxy-3,5-dimethylpyridin-2-yl)methyl]-2,7,8,9-tetrahydro-6-thia-1,2,3,5-tetraazabenzo[cd]azulen-8-yl}acetamide], for which the GI50 in test [1] (NCI-H460, MTT assay, 72 hours) stood at 253 nM; in test [3] (SK-BR-3, MTT assay, 72 hours), 91 nM. Moreover, in test [2], the pIC50 is 5.85.

With `COc1c(C)cnc(Cn2nc3c4c(nc(N)nc42)SCC(NC2CC2)C3)c1C` (centres unmarked) [Example 51, N^8-Cyclopropyl-2-[(4-methoxy-3,5-dimethylpyridin-2-yl)methyl]-2,7,8,9-tetrahydro-6-thia-1,2,3,5-tetraazabenzo[cd]azulene-4,8-diamine hydrochloride], the GI50 stood at 150 nM in test [1] (NCI-H460, MTT assay, 72 hours) and 58 nM in test [3] (SK-BR-3, MTT assay, 72 hours). In test [2], the pIC50 was 5.62.

As for `COc1c(C)cnc(Cn2nc3c4c(nc(N)nc42)SCC(N2CCC[C@H]2C(N)=O)C3)c1C` (stereo partly drawn) [Example 67, 1-{4-Amino-2-[(4-methoxy-3,5-dimethylpyridin-2-yl)methyl]-2,7,8,9-tetrahydro-6-thia-1,2,3,5-tetraazabenzo[cd]azulen-8-yl}-L-prolinamide], the GI50 amounted to 300 nM in test [1] (NCI-H460, MTT assay, 72 hours) and 130 nM in test [3] (SK-BR-3, MTT assay, 72 hours). Also, the pIC50 in test [2] was 5.92.

`COc1c(C)cnc(Cn2nc3c4c(nc(N)nc42)SCC(N(C)C(C)=O)C3)c1C` (centres unmarked) [Example 99, N-{4-Amino-2-[(4-methoxy-3,5-dimethylpyridin-2-yl)methyl]-2,7,8,9-tetrahydro-6-thia-1,2,3,5-tetraazabenzo[cd]azulen-8-yl}-N-methylacetamide]: the GI50 in test [1] (NCI-H460, MTT assay, 72 hours) came to 650 nM; in test [3] (SK-BR-3, MTT assay, 72 hours), 320 nM. Moreover, in test [2], the pIC50 is 6.09.

As for `COc1c(C)cnc(Cn2nc3c4c(nc(N)nc42)SCC(CCO)=C3)c1C` [Example 111, 2-{4-Amino-2-[(4-methoxy-3,5-dimethylpyridin-2-yl)methyl]-2,7-dihydro-6-thia-1,2,3,5-tetraazabenzo[cd]azulen-8-yl}ethanol], the GI50 came to 94 nM in test [1] (NCI-H460, 72 h) and 49 nM in test [3] (SK-BR-3, 72 h). Moreover, the pIC50 in test [2] is 6.09.

Turning to `COc1c(C)cnc(Cn2nc3c4c(nc(N)nc42)SCC(CC(N)=O)=C3)c1C` [Example 115, 2-{4-Amino-2-[(4-methoxy-3,5-dimethylpyridin-2-yl)methyl]-2,7-dihydro-6-thia-1,2,3,5-tetraazabenzo[cd]azulen-8-yl}acetamide], the GI50 in test [1] (NCI-H460, MTT assay, 72 hours) came to 194 nM; in test [3] (SK-BR-3, MTT assay, 72 hours) it was 77 nM. For the same compound, the pIC50 in test [2] is 6.13.

Regarding `CNC(=O)CC1=Cc2nn(Cc3ncc(C)c(OC)c3C)c3nc(N)nc(c23)SC1` [Example 116, 2-{4-Amino-2-[(4-methoxy-3,5-dimethylpyridin-2-yl)methyl]-2,7-dihydro-6-thia-1,2,3,5-tetraazabenzo[cd]azulen-8-yl}-N-methylacetamide], the GI50 in test [1] (NCI-H460, MTT assay, 72 hours) is 89 nM; in test [3] (SK-BR-3, MTT assay, 72 hours), 37 nM. Moreover, the pIC50 in test [2] was 5.96.

`Nc1nc2c3c(nn(Cc4cc5c(cn4)OCCO5)c3n1)CCS2` [Example 172, 2-(2,3-Dihydro[1,4]dioxino[2,3-c]pyridin-7-ylmethyl)-7,8-dihydro-2H-6-thia-1,2,3,5-tetraazaacenaphthylen-4-amine]: in test [2], the pIC50 was 5.82.

Regarding `Nc1nc2c3c(nn(Cc4nc5cccc(Cl)c5s4)c3n1)CCS2` [Example 174, 2-[(7-Chloro-1,3-benzothiazol-2-yl)methyl]-7,8-dihydro-2H-6-thia-1,2,3,5-tetraazaacenaphthylen-4-amine], the pIC50 in test [2] was 5.47.

As for `Cc1cnc(Cn2nc3c4c(nc(N)nc42)SCC3)c(C)c1Cl` [Example 175, 2-[(4-Chloro-3,5-dimethylpyridin-2-yl)methyl]-7,8-dihydro-2H-6-thia-1,2,3,5-tetraazaacenaphthylen-4-amine], the pIC50 in test [2] is 5.92.

As to `CCc1c(C)cnc(Cn2nc3c4c(nc(N)nc42)SCC3)c1C` [Example 176, 2-[(4-Ethyl-3,5-dimethylpyridin-2-yl)methyl]-7,8-dihydro-2H-6-thia-1,2,3,5-tetraazaacenaphthylen-4-amine], in test [2], the pIC50 is 6.05.

On to `COc1c(C)cnc(Cn2nc3c4c(nc(N)nc42)SCC(CO)=C3)c1C` [Example 214, {4-Amino-2-[(4-methoxy-3,5-dimethylpyridin-2-yl)methyl]-2,7-dihydro-6-thia-1,2,3,5-tetraazabenzo[cd]azulen-8-yl}methanol], for which the pIC50 in test [2] was 6.12.
